Reference: US11214803B2, “Modulators of YAP1 expression” (Ionis Pharmaceuticals, Inc., priority 2019, dated 2022)
pIC50: −log10 of the molar value. Strand notation (5' to 3'): a small letter for the sugar, then the base; units joined by * are phosphorothioate-linked, units joined directly phosphodiester-linked; [ ] holds rarer units or linkages, { } end groups; capitals alone tell only the bases. k = constrained ethyl (cEt); [5mC] = 5-methylcytosine; d = 2'-deoxy (DNA)

Assays:
Yap1 mRNA [1] = assay: Dose-dependent inhibition of human Yap1 in A-431 cells (Example 7, 10,000 cells per well, RTS36584); assay type: cell-based; conditions: free uptake
In short: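 A-431 cells at 10,000 per well received modified oligonucleotides by free uptake at several doses. After about 48 hours, Yap1 mRNA was quantified with primer-probe set RTS36584, normalized to RIBOGREEN total RNA and expressed as % untreated control. IC50 came from linear regression on a log/linear plot.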

[2] = Tolerability in Balb/c mice, plasma chemistry markers (Example 12); assay type: in vivo; conditions: 50 mg/kg subcutaneously twice a week for four weeks
Protocol: Balb/c mice were treated with modified oligonucleotides selected from studies described above and evaluated for changes in the levels of various plasma chemistry markers.
(§1) Groups of male Balb/c mice at 6-7 weeks of age (obtained from Taconic) were injected subcutaneously twice a week for four weeks (for a total of 8 treatments) with 50 mg/kg of modified oligonucleotides. One group of male Balb/c mice was injected with PBS. Mice were euthanized on day 26 post start of treatment (24 hours following the final administration).

[3] = Tolerability in Balb/c mice, body and organ weights (Example 12); assay type: in vivo; conditions: male Balb/c mice, 50 mg/kg s.c. twice a week for four weeks (8 treatments), end of study (day 26)
Protocol: as §1
Body weights of Balb/c mice were measured at the end of the study, and the average body weight for each group is presented in the table below. Modified oligonucleotides that caused any changes in organ weights outside the expected range for modified oligonucleotides were excluded from further studies.

Yap1 mRNA [4] = assay: Dose-dependent inhibition of human Yap1 in SNU-449 cells (Example 9, RTS36584); assay type: cell-based; conditions: free uptake; for % UTC (Yap1 mRNA): approximately 48 hours
In short: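 SNU-449 cells (10,000/well) took up modified oligonucleotides by free uptake at a range of doses for about 48 h. Yap1 mRNA was quantified with primer-probe set RTS36584, normalised to RIBOGREEN total RNA and expressed as % untreated control; IC50 from linear regression on log/linear plot.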

[5] = 15.6 nM, A-431 cells, 10,000 cells per well, approximately 48 hours
[6] = 62.5 nM, A-431 cells, 10,000 cells per well, approximately 48 hours
[7] = 4000.00 nM, A-431 cells, 10,000 cells per well, approximately 48 hours
[8] = A-431 cells, approximately 48 hours, linear regression on log/linear plot
[9] = Table 59, 15.6 nM, A-431 cells 10,000 cells per well, 48 hours
[10] = Table 59, 62.5 nM, A-431 cells 10,000 cells per well, 48 hours
[11] = Table 59, 4000.00 nM, A-431 cells 10,000 cells per well, 48 hours
[12] = Table 59, A-431 cells 10,000 cells per well
[13] = Table 61, 15.6 nM, A-431 cells 10,000 cells per well, 48 hours
[14] = Table 61, 62.5 nM, A-431 cells 10,000 cells per well, 48 hours
[15] = Table 61, 4000.00 nM, A-431 cells 10,000 cells per well, 48 hours
[16] = Table 61, A-431 cells 10,000 cells per well
[17] = Table 56, 15.6 nM, A-431 cells 10,000 cells per well, 48 hours
[18] = Table 56, 62.5 nM, A-431 cells 10,000 cells per well, 48 hours
[19] = Table 56, 4000.00 nM, A-431 cells 10,000 cells per well, 48 hours
[20] = Table 56, A-431 cells 10,000 cells per well

Row | Substance | ALT [2] [U/L] | AST [2] [U/L] | BUN [2] [mg/dL] | TBIL [2] [mg/dL] | Kidney weight [3] [g] | Liver weight [3] [g] | Spleen weight [3] [g] | body weight [3] [g] | other results
1 | 958725 (kG*kT*k[5mC]*dA*dG*dT*dT*dA*dT*d[5mC]*d[5mC]*dT*dA*kT*k[5mC]*k[5mC]; antisense) [compound 958725] | 3758 | 3758 | 31 | 0.91 | 0.21 | 1.23 | 0.04 | 15 | Yap1 mRNA, % UTC (Yap1 mRNA [1]; [5]): 65 % UTC; Yap1 mRNA, % UTC (Yap1 mRNA [1]; [6]): 36 % UTC; Yap1 mRNA, % UTC (Yap1 mRNA [1]; [7]): 1 % UTC; pIC50 (Yap1 mRNA [1]; [8]): 7.52
2 | 958603 (kT*kG*kG*dT*dA*dT*dG*dA*dA*dT*dT*d[5mC]*dT*kG*kA*kA; antisense) [compound 958603] | 1103 | 927 | 27 | 0.35 | 0.36 | 1.80 | 0.20 | 21 | Yap1 mRNA, % UTC (Yap1 mRNA [1]; [9]): 70 % UTC; Yap1 mRNA, % UTC (Yap1 mRNA [1]; [10]): 27 % UTC; Yap1 mRNA, % UTC (Yap1 mRNA [1]; [11]): 4 % UTC; pIC50 (Yap1 mRNA [1]; [12]): 7.52
3 | 958498 (kG*kA*kG*dT*dA*dT*dG*dT*dG*dG*d[5mC]*dA*dA*kT*kA*kA; antisense) [compound 958498] | 1441 | 3197 | 12 | 0.74 | 0.45 | 1.51 | 0.19 | 20 | Yap1 mRNA, % UTC (Yap1 mRNA [1]; [9]): 70 % UTC; Yap1 mRNA, % UTC (Yap1 mRNA [1]; [10]): 21 % UTC; Yap1 mRNA, % UTC (Yap1 mRNA [1]; [11]): 2 % UTC; pIC50 (Yap1 mRNA [1]; [12]): 7.70
4 | 958454 (antisense kG*kG*kA*dA*dT*dG*dA*dG*d[5mC]*dT*d[5mC]*dG*dA*kA*k[5mC]*kA) [compound 958454] | 1183 | 2162 | 45 | 6.53 | 0.25 | 0.68 | 0.03 | 14 | Yap1 mRNA, % UTC (Yap1 mRNA [1]; [13]): 72 % UTC; Yap1 mRNA, % UTC (Yap1 mRNA [1]; [14]): 40 % UTC; Yap1 mRNA, % UTC (Yap1 mRNA [1]; [15]): 4 % UTC; pIC50 (Yap1 mRNA [1]; [16]): 7.40
5 | 958590 (kA*kG*kG*dT*dA*dT*dA*dA*d[5mC]*dT*dG*dG*dG*k[5mC]*kA*kA) [compound 958590] | 374 | 360 | 25 | 0.16 | 0.40 | 1.76 | 0.13 | 25 | Yap1 mRNA, % UTC (Yap1 mRNA [1]; [5]): 71 % UTC; Yap1 mRNA, % UTC (Yap1 mRNA [1]; [6]): 33 % UTC; Yap1 mRNA, % UTC (Yap1 mRNA [1]; [7]): 4 % UTC; pIC50 (Yap1 mRNA [1]; [8]): 7.52; % UTC (Yap1 mRNA) (Yap1 mRNA [4]; 31.3 nM): 69 % UTC; % UTC (Yap1 mRNA) (Yap1 mRNA [4]; 125.0 nM): 52 % UTC; % UTC (Yap1 mRNA) (Yap1 mRNA [4]; 500.0 nM): 29 % UTC; % UTC (Yap1 mRNA) (Yap1 mRNA [4]; 2000.00 nM): 12 % UTC; pIC50 (Yap1 mRNA [4]; linear regression on a log/linear plot): 7.00
6 | 958540 (kA*kT*kT*d[5mC]*dT*dA*dT*d[5mC]*d[5mC]*dA*dG*dG*dG*kT*k[5mC]*kA; antisense) [compound 958540] | 4127 | 3940 | 25 | 0.44 | 0.33 | 1.53 | 0.09 | 19 | Yap1 mRNA, % UTC (Yap1 mRNA [1]; [5]): 62 % UTC; Yap1 mRNA, % UTC (Yap1 mRNA [1]; [6]): 28 % UTC; Yap1 mRNA, % UTC (Yap1 mRNA [1]; [7]): 8 % UTC; pIC50 (Yap1 mRNA [1]; [8]): 7.70
7 | 958553 (k[5mC]*k[5mC]*kA*dT*dT*dA*dT*dT*dA*d[5mC]*dT*d[5mC]*d[5mC]*kT*kG*kT; antisense) [compound 958553] | 174 | 227 | 29 | 0.20 | 0.29 | 1.01 | 0.11 | 21 | Yap1 mRNA, % UTC (Yap1 mRNA [1]; [9]): 68 % UTC; Yap1 mRNA, % UTC (Yap1 mRNA [1]; [10]): 23 % UTC; Yap1 mRNA, % UTC (Yap1 mRNA [1]; [11]): 5 % UTC; pIC50 (Yap1 mRNA [1]; [12]): 7.52
8 | 958509 (kA*kT*kG*dT*dT*dA*dT*dG*dT*dT*dT*dG*dG*kG*kT*kG; antisense) [compound 958509] | 1483 | 1627 | 26 | 0.31 | 0.27 | 1.50 | 0.13 | 20 | Yap1 mRNA, % UTC (Yap1 mRNA [1]; [13]): 66 % UTC; Yap1 mRNA, % UTC (Yap1 mRNA [1]; [14]): 37 % UTC; Yap1 mRNA, % UTC (Yap1 mRNA [1]; [15]): 7 % UTC; pIC50 (Yap1 mRNA [1]; [16]): 7.52
9 | 958554 (kA*kA*k[5mC]*d[5mC]*dA*dT*dT*dA*dT*dT*dA*d[5mC]*dT*k[5mC]*k[5mC]*kT; antisense) [compound 958554] | 583 | 1051 | 17 | 0.28 | 0.28 | 1.05 | 0.15 | 22 | Yap1 mRNA, % UTC (Yap1 mRNA [1]; Table 60, 15.6 nM, A-431 cells 10,000 cells per well, 48 hours): 70 % UTC; Yap1 mRNA, % UTC (Yap1 mRNA [1]; Table 60, 62.5 nM, A-431 cells 10,000 cells per well, 48 hours): 34 % UTC; Yap1 mRNA, % UTC (Yap1 mRNA [1]; Table 60, 4000.00 nM, A-431 cells 10,000 cells per well, 48 hours): 4 % UTC; pIC50 (Yap1 mRNA [1]; Table 60, A-431 cells 10,000 cells per well): 7.52
10 | 958721 (kG*kT*kA*dG*dT*dA*dT*dA*dA*dT*dG*dA*dG*kT*kT*kA; antisense) [compound 958721] | 57 | 114 | 28 | 0.17 | 0.33 | 1.45 | 0.12 | 24 | Yap1 mRNA, % UTC (Yap1 mRNA [1]; [17]): 72 % UTC; Yap1 mRNA, % UTC (Yap1 mRNA [1]; [18]): 32 % UTC; Yap1 mRNA, % UTC (Yap1 mRNA [1]; [19]): 3 % UTC; pIC50 (Yap1 mRNA [1]; [20]): 7.52
11 | 958729 (kG*kT*k[5mC]*dA*dG*dT*dT*dA*dT*d[5mC]*d[5mC]*dT*dA*kT*k[5mC]*kT; antisense) [compound 958729] | 4368 | 4503 | 30 | 2.15 | 0.24 | 1.32 | 0.05 | 15 | Yap1 mRNA, % UTC (Yap1 mRNA [1]; [13]): 73 % UTC; Yap1 mRNA, % UTC (Yap1 mRNA [1]; [14]): 44 % UTC; Yap1 mRNA, % UTC (Yap1 mRNA [1]; [15]): 4 % UTC; pIC50 (Yap1 mRNA [1]; [16]): 7.30
12 | 958736 (kG*kT*kG*dA*dT*dA*dT*dG*dG*dA*dT*dT*d[5mC]*kT*kG*kT; antisense) [compound 958736] | 2439 | 1450 | 20 | 0.31 | 0.39 | 1.95 | 0.18 | 24 | Yap1 mRNA, % UTC (Yap1 mRNA [1]; [17]): 83 % UTC; Yap1 mRNA, % UTC (Yap1 mRNA [1]; [18]): 38 % UTC; Yap1 mRNA, % UTC (Yap1 mRNA [1]; [19]): 7 % UTC; pIC50 (Yap1 mRNA [1]; [20]): 7.22
